Source: ChEMBL document CHEMBL4507259 (2021)

Assays:
[1] = biological target: RAC-beta serine/threonine-protein kinase (Homo sapiens) (UniProt P31751); settings: Compound concentration 1000.0 nM
[2] = biological target: Proto-oncogene tyrosine-protein kinase ROS (Homo sapiens) (UniProt P08922); settings: Compound concentration 1000.0 nM
[3] = biological target: Serine/threonine-protein kinase PAK 1 (Homo sapiens) (UniProt Q13153); settings: Compound concentration 1000.0 nM
[4] = biological target: D(2) dopamine receptor (Homo sapiens) (UniProt P14416); settings: Compound concentration 10.0 uM
[5] = biological target: Calcium/calmodulin-dependent protein kinase type II subunit gamma (Homo sapiens) (UniProt Q13555); settings: Compound concentration 1000.0 nM
[6] = biological target: Mitogen-activated protein kinase kinase kinase 11 (Homo sapiens) (UniProt Q16584); settings: Compound concentration 1000.0 nM
[7] = biological target: Kappa-type opioid receptor (Homo sapiens) (UniProt P41145); settings: Compound concentration 10.0 uM
[8] = biological target: Platelet-derived growth factor receptor alpha (Homo sapiens) (UniProt P16234); settings: Compound concentration 1000.0 nM
[9] = biological target: Wee1-like protein kinase (Homo sapiens) (UniProt P30291); settings: Compound concentration 1000.0 nM
[10] = biological target: Androgen receptor (Homo sapiens) (UniProt P10275); test: AR (h) CEREP ligand profiling; settings: filed as agonist, Compound concentration 10.0 uM
[11] = biological target: Tyrosine-protein kinase Srms (Homo sapiens) (UniProt Q9H3Y6); settings: Compound concentration 1000.0 nM
[12] = biological target: Cyclin-dependent kinase 8 (Homo sapiens) (UniProt P49336); settings: Compound concentration 1000.0 nM
[13] = biological target: Serine/threonine-protein kinase 25 (Homo sapiens) (UniProt O00506); settings: Compound concentration 1000.0 nM
[14] = biological target: Glucocorticoid receptor (Homo sapiens) (UniProt P04150); test: GR (h) CEREP ligand profiling; settings: filed as agonist, Compound concentration 10.0 uM
[15] = biological target: Receptor-interacting serine/threonine-protein kinase 4 (Homo sapiens) (UniProt P57078); settings: Compound concentration 1000.0 nM
[16] = tested on: ALK tyrosine kinase receptor (Homo sapiens), Q9UM73 [L1196M]; settings: Compound concentration 1000.0 nM
[17] = biological target: AP2-associated protein kinase 1 (Homo sapiens) (UniProt Q2M2I8); settings: Compound concentration 1000.0 nM
[18] = biological target: Protein-tyrosine kinase 2-beta (Homo sapiens) (UniProt Q14289); settings: Compound concentration 1000.0 nM
[19] = tested on: Phosphatidylinositol 4,5-bisphosphate 3-kinase catalytic subunit alpha isoform (Homo sapiens), P42336 [C420R]; settings: Compound concentration 1000.0 nM
[20] = biological target: Sodium-dependent serotonin transporter (Homo sapiens, UniProt P31645); settings: Compound concentration 10.0 uM
[21] = biological target: Serine/threonine-protein kinase PLK2 (Homo sapiens) (UniProt Q9NYY3); settings: Compound concentration 1000.0 nM
[22] = biological target: T1, Muscarinic acetylcholine receptor M1 (Homo sapiens) (UniProt P11229); test: M1 (h) CEREP ligand profiling; settings: filed as antagonist, Compound concentration 10.0 uM
T1 sequence (whole entry): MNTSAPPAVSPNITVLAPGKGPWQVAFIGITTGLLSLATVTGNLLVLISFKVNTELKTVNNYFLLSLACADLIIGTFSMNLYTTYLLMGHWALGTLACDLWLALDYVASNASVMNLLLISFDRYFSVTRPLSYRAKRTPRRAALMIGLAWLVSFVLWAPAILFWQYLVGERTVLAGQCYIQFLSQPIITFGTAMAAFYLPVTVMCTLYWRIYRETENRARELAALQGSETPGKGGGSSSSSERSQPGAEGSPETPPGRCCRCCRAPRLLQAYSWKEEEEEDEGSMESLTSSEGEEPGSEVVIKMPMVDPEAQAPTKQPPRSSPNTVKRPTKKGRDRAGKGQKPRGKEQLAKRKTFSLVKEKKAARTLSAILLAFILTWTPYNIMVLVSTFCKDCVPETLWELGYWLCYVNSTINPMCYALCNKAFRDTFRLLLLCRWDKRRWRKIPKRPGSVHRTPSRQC

[23] = biological target: Ephrin type-A receptor 6 (Homo sapiens) (UniProt Q9UF33); settings: Compound concentration 1000.0 nM
[24] = biological target: Ephrin type-B receptor 2 (Homo sapiens) (UniProt P29323); settings: Compound concentration 1000.0 nM
[25] = tested on: Mast/stem cell growth factor receptor Kit (Homo sapiens), P10721 [V559D]; settings: Compound concentration 1000.0 nM
[26] = biological target: Tumor necrosis factor (Homo sapiens) (UniProt P01375); test: TNF-alpha (h) CEREP ligand profiling; settings: filed as agonist, Compound concentration 10.0 uM
[27] = biological target: NUAK family SNF1-like kinase 1 (Homo sapiens) (UniProt O60285); settings: Compound concentration 1000.0 nM
[28] = biological target: Ribosomal protein S6 kinase alpha-6 (Homo sapiens) (UniProt Q9UK32); settings: Compound concentration 1000.0 nM
[29] = biological target: Phosphorylase b kinase gamma catalytic chain, skeletal muscle/heart isoform (Homo sapiens) (UniProt Q16816); settings: Compound concentration 1000.0 nM
[30] = biological target: LIM domain kinase 2 (Homo sapiens) (UniProt P53671); settings: Compound concentration 1000.0 nM
[31] = biological target: Serine/threonine-protein kinase MRCK gamma (Homo sapiens) (UniProt Q6DT37); settings: Compound concentration 1000.0 nM
[32] = biological target: Serine/threonine-protein kinase mTOR (Homo sapiens) (UniProt P42345); settings: Compound concentration 1000.0 nM
[33] = biological target: Serine/threonine-protein kinase PknB (Mycobacterium tuberculosis) (UniProt P9WI81); settings: Compound concentration 1000.0 nM
[34] = biological target: Mitogen-activated protein kinase kinase kinase 3 (Homo sapiens) (UniProt Q99759); settings: Compound concentration 1000.0 nM
[35] = tested on: Epidermal growth factor receptor (Homo sapiens), P00533 [L858R,T790M]; settings: Compound concentration 1000.0 nM
[36] = biological target: Ribosomal protein S6 kinase alpha-3 (Homo sapiens) (UniProt P51812); settings: Compound concentration 1000.0 nM
[37] = biological target: Mitogen-activated protein kinase kinase kinase kinase 3 (Homo sapiens) (UniProt Q8IVH8); settings: Compound concentration 1000.0 nM
[38] = biological target: Serine/threonine-protein kinase Chk1 (Homo sapiens) (UniProt O14757); settings: Compound concentration 1000.0 nM
[39] = biological target: Myosin light chain kinase family member 4 (Homo sapiens) (UniProt Q86YV6); settings: Compound concentration 1000.0 nM

Chain of RAC-beta serine/threonine-protein kinase (Homo sapiens) (P31751 whole entry): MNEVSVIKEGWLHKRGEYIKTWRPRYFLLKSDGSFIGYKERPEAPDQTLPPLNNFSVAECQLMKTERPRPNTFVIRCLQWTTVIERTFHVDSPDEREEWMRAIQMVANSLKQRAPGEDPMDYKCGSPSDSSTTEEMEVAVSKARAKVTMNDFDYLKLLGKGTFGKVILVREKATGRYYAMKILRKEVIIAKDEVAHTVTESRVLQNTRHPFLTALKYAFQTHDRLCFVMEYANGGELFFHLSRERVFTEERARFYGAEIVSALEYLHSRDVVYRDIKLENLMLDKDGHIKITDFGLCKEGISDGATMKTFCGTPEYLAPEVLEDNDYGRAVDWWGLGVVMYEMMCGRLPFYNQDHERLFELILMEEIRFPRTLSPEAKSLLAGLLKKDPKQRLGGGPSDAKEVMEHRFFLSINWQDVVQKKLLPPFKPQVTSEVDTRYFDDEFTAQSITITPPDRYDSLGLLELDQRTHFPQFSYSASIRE
Chain of Serine/threonine-protein kinase PLK2 (Homo sapiens) (Q9NYY3 whole entry, looked up): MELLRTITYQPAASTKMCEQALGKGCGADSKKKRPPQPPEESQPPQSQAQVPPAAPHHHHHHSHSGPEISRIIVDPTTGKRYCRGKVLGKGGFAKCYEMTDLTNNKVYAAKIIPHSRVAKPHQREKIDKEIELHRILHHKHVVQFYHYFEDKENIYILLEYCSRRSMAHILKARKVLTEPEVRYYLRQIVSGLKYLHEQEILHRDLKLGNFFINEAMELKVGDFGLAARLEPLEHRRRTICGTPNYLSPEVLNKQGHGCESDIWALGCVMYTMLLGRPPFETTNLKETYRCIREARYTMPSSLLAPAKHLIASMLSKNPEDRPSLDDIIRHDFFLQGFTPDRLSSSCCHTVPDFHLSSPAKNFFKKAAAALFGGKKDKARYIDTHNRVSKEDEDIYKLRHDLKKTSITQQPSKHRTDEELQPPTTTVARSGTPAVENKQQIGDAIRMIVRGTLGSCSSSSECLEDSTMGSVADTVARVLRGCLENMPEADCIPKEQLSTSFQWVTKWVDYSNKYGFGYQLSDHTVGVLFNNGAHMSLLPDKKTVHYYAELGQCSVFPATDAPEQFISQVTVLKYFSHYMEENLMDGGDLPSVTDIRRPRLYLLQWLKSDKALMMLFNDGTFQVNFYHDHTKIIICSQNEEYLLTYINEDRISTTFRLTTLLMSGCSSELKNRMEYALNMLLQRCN
Chain of LIM domain kinase 2 (Homo sapiens) (P53671 whole entry, looked up, the tested form may be a part): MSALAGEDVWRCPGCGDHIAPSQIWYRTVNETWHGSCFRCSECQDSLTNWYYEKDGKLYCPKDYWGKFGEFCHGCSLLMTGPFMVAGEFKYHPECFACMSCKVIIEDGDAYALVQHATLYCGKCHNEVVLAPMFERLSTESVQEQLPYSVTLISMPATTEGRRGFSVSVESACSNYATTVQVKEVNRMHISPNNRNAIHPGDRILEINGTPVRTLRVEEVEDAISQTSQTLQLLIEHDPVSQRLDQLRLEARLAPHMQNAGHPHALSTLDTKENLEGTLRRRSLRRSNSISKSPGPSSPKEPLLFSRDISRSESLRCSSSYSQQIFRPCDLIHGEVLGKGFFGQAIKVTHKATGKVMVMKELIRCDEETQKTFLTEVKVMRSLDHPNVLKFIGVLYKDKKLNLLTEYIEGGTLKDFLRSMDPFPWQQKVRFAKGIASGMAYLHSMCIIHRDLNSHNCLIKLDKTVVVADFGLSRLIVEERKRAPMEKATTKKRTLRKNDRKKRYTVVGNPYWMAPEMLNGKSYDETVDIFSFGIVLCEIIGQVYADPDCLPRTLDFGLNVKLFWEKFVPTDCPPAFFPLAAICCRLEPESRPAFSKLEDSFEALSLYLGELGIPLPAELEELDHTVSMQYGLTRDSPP
Chain of Mitogen-activated protein kinase kinase kinase 3 (Homo sapiens) (Q99759 whole entry): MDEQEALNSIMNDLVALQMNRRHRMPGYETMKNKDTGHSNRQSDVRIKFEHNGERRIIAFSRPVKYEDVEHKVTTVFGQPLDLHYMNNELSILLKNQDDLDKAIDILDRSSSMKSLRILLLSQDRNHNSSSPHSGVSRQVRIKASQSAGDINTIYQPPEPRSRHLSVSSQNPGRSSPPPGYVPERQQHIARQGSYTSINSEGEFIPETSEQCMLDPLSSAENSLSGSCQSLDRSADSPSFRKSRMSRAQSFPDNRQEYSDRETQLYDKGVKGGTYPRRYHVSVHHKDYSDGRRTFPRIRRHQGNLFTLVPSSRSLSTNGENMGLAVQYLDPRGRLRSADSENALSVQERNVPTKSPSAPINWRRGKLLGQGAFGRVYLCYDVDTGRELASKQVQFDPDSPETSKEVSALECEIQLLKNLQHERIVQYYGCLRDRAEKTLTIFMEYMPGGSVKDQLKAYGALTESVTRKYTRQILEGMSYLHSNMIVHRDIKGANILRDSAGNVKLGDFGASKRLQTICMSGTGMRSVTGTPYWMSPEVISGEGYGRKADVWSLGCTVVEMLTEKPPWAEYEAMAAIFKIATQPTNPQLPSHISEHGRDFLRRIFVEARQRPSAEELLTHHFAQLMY
Chain of Mast/stem cell growth factor receptor Kit (Homo sapiens), P10721 [V559D] (P10721 whole entry V559D): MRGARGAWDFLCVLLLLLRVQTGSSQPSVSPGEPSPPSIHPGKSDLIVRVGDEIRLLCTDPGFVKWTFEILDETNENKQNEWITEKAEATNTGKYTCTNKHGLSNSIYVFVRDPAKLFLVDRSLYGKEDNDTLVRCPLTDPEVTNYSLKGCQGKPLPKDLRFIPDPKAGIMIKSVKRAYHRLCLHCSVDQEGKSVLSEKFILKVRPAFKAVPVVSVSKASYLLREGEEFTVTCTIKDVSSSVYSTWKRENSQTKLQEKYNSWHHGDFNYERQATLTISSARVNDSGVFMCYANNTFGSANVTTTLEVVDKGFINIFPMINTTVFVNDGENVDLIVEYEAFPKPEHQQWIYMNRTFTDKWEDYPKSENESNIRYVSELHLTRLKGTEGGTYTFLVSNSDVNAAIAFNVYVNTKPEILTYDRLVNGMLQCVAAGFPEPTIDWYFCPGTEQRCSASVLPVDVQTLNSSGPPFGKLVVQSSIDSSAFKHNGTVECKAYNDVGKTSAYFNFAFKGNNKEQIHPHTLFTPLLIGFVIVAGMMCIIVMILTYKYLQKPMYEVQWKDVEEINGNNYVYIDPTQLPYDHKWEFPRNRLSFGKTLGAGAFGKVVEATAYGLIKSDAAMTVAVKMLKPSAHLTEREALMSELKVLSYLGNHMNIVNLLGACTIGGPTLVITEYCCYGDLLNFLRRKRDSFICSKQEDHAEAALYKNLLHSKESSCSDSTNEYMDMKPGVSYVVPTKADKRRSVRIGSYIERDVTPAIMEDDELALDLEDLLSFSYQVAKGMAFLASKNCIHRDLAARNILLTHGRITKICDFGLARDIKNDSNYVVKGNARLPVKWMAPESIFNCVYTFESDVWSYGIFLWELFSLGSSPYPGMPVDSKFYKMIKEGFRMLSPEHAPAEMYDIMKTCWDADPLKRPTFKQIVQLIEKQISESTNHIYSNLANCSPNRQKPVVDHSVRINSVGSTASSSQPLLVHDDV
Chain of Serine/threonine-protein kinase PknB (Mycobacterium tuberculosis) (P9WI81 whole entry): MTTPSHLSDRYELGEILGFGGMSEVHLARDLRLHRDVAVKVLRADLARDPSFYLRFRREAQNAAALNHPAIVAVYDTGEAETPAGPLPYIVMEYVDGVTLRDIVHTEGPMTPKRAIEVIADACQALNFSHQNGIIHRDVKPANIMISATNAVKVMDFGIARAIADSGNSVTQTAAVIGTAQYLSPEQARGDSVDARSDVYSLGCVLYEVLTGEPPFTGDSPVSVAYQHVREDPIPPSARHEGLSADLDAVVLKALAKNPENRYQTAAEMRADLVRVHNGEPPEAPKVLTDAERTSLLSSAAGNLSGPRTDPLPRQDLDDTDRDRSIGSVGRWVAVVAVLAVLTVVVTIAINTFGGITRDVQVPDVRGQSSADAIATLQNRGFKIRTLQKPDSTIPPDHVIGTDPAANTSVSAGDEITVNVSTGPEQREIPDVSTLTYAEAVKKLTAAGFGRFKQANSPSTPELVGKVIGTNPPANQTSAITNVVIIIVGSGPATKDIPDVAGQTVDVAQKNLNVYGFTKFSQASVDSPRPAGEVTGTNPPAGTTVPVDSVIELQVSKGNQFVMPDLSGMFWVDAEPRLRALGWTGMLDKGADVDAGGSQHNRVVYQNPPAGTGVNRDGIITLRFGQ
Chain of Mitogen-activated protein kinase kinase kinase kinase 3 (Homo sapiens) (Q8IVH8 whole entry): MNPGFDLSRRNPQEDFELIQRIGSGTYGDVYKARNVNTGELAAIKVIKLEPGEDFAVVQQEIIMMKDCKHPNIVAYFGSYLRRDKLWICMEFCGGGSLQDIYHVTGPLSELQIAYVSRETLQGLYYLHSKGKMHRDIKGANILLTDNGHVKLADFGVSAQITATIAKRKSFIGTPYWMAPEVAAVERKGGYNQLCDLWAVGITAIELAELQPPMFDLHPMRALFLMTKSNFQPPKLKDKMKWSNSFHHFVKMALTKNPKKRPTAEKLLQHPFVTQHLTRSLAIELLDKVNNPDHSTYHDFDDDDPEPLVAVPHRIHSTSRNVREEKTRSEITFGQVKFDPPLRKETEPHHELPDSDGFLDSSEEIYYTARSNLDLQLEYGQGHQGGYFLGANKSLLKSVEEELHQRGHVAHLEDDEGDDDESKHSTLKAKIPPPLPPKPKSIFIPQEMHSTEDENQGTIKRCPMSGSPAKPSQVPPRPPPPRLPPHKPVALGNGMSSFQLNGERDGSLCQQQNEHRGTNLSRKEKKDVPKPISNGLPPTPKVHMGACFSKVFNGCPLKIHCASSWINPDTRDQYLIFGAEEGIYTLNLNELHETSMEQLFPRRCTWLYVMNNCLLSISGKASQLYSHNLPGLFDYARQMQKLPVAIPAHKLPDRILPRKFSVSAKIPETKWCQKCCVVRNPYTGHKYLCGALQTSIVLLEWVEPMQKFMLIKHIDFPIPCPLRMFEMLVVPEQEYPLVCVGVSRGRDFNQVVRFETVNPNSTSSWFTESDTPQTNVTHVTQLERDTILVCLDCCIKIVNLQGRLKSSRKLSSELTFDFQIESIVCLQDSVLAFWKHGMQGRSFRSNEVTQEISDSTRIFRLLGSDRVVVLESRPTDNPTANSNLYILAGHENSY

| Structure (SMILES) | residual activity [1] | residual activity [2] | residual activity [3] | inhibition [4] | residual activity [5] | residual activity [6] | inhibition [7] | residual activity [8] | residual activity [9] | inhibition [10] | residual activity [11] | residual activity [12] | residual activity [13] | inhibition [14] | residual activity [15] | residual activity [16] | residual activity [17] | residual activity [18] | residual activity [19] | inhibition [20] | also measured |
| --- | --- | --- | --- | --- | --- | --- | --- | --- | --- | --- | --- | --- | --- | --- | --- | --- | --- | --- | --- | --- | --- |
| CNC(=O)Nc1ccc2c(c1)CC[C@@]21OC(=O)N(CC(=O)N(Cc2ccc(F)cc2)[C@@H](C)C(F)(F)F)C1=O [A-485] | 80% | 80% | 88% | 15.5% | 76% | 73% | 18.5% | 93% | 80% | -4% | 83% | 100% | 99% | 13% | 56% | 75% | 100% | 73% | 80% | 95.6% | residual activity [21]: 91%; inhibition [22]: -2%; residual activity [23]: 79%; residual activity [24]: 72%; residual activity [25]: 100%; inhibition [26]: 1%; residual activity [27]: 94%; residual activity [28]: 84%; residual activity [29]: 100%; residual activity [30]: 88%; residual activity [31]: 88%; residual activity [32]: 92%; residual activity [33]: 83%; residual activity [34]: 86%; residual activity [35]: 91%; residual activity [36]: 87%; residual activity [37]: 76%; residual activity [38]: 98%; residual activity [39]: 70% |
| CNC(=O)Nc1ccc2c(c1)[C@@]1(CC2)OC(=O)N(CC(=O)N(Cc2ccc(F)cc2)[C@@H](C)C(F)(F)F)C1=O [A-486] | 99% | 87% | 98% | -8.75% | 98% | 91% | 8.21% | 83% | 100% | 4% | 88% | 96% | 100% | 16% | 52% | 88% | 100% | 83% | 80% | 31% | residual activity [21]: 92%; inhibition [22]: -8%; residual activity [23]: 91%; residual activity [24]: 87%; residual activity [25]: 100%; inhibition [26]: 1%; residual activity [27]: 88%; residual activity [28]: 100%; residual activity [29]: 100%; residual activity [30]: 90%; residual activity [31]: 88%; residual activity [32]: 100%; residual activity [33]: 84%; residual activity [34]: 75%; residual activity [35]: 83%; residual activity [36]: 84%; residual activity [37]: 89%; residual activity [38]: 100%; residual activity [39]: 100% |
